Among the data in PubChem BioAssay (NCI) are GI50 and TGI values, retold here.

Each structure is given as a SMILES string.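 All cell lines were grown in 96-well plates and treated with compound for 48 hours. Here, GI50 denotes the concentration required for 50% inhibition of growth. TGI denotes the concentration required for complete inhibition of growth.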

Holding throughout (assay): NCI anticancer screen, dose series, 48 h
Assay [1] concerns ACHN renal.
The subject of assay [2] is CAKI-1 renal.
The subject of assay [3] is HT29 colon.
Assay [4] concerns IGROV1 ovarian.
Assay [5] relates to LOX IMVI melanoma.
Assay [6] relates to M14 melanoma.
Assay [7] deals with NCI-H522 lung.
The subject of assay [8] is PC-3 prostate.
Assay [9] relates to SK-OV-3 ovarian.
The test system of assay [10] is TK-10 renal.

In the case of `NC(=O)c1c(OCc2c(F)cc(Br)cc2F)nsc1NC(=O)NCCCCN1CCCC1`, the GI50 is 1.18 µM in assay [1]; 2.49 µM in assay [2]; 1.46 µM in [3]; 0.327 µM in [4]; 1.16 µM in [5]; 1.6 µM in assay [6]. The GI50 was 1.83 µM in [7], 3.14 µM in assay [8], over 10 µM in assay [9] and 2.06 µM in [10]. Moreover, the TGI in [1] is 5.25 µM; in assay [2], over 10 µM; in assay [3], 6.77 µM; in [4] it was 4.29 µM; in [5] it was 2.5 µM; in assay [6], 3.46 µM. Moreover, the TGI in [7] is 5.32 µM; in assay [8], over 10 µM; in [9], over 10 µM; in assay [10], 7.94 µM.

In the case of `Nc1cc(C(F)F)c(-c2nc(N3[C@@H]4CC[C@H]3COC4)nc(N3[C@@H]4CC[C@H]3COC4)n2)cn1`, the GI50 in [1] was 0.302 µM; in assay [2] it was 0.188 µM; in assay [3], 0.628 µM; in assay [4], 0.146 µM; in assay [5], 0.336 µM; in [6] it was 0.295 µM. In addition, the GI50 is 0.295 µM in [7], 0.239 µM in assay [8], 0.145 µM in assay [9] and 0.156 µM in assay [10]. The TGI was over 100 µM in [1]; 3.21 µM in assay [2]; over 100 µM in assay [3]; 1.54 µM in assay [4]; over 48 µM in assay [5]; 23.9 µM in [6]. The TGI in [7] is over 100 µM; in [8], over 100 µM; in [9], 0.769 µM; in assay [10], 3.22 µM.

As for `C/C=C(/C)C(=O)OC1C=C(CO)C(=O)C(OC(=O)/C(C)=C\C)C1C(C)C` (stereo not given), the GI50 in assay [1] is 0.541 µM; in [2], 1.34 µM; in assay [3], 0.625 µM; in assay [4], 0.96 µM; in [5], 0.604 µM; in assay [6], 0.795 µM. The GI50 in assay [7] was 0.63 µM; in [8] it was 0.599 µM; in [9], 2.27 µM; in assay [10] it was 1.38 µM. Moreover, the TGI in [1] came to 1.69 µM; in [2], 2.62 µM; in assay [3], 2.33 µM; in assay [4] it was 2.43 µM; in assay [5], 1.75 µM; in assay [6] it was 2.26 µM. Besides, the TGI in assay [7] amounted to 2.23 µM; in assay [8] it was 1.8 µM; in [9] it was 4.48 µM; in assay [10] it was 2.79 µM.

With `NC1=C(c2nc(-c3cc4ccccc4oc3=O)cs2)C(c2ccco2)c2c(c3ccccc3oc2=O)O1` (stereo not given), the GI50 in assay [1] was 36.3 µg/mL; in [2] it was over 150 µg/mL; in assay [3] it was over 150 µg/mL; in [4] it was over 150 µg/mL; in [5], over 150 µg/mL; in assay [6] it was 100 µg/mL. In addition, the GI50 in assay [7] is over 150 µg/mL; in assay [8] it was over 150 µg/mL; in assay [9], 51.4 µg/mL; in assay [10], 46.4 µg/mL. For the same molecule, the TGI in assay [1], in assay [2], in [3], in assay [4], in assay [5] and in assay [6] was over 150 µg/mL in each case. Further, the TGI in assay [7] is over 150 µg/mL; in assay [8], over 150 µg/mL; in assay [9] it was over 150 µg/mL; in assay [10] it was 87.6 µg/mL.

Take `Cc1ccc(NC2=C(Cl)C(=O)c3nc(C)ccc3C2=O)cc1`: the GI50 in assay [1] was 1.59 µM; in assay [2], 1.36 µM; in assay [3] it was 2.79 µM; in [4], 1.54 µM; in assay [5] it was 0.711 µM; in assay [6] it was 1.67 µM. Besides, the GI50 in [7] was 1.88 µM; in assay [8], 1.19 µM; in assay [9] it was 11.9 µM; in assay [10], 2.27 µM. The TGI stood at 2.97 µM in [1]; 2.68 µM in assay [2]; 8.46 µM in [3]; 3.35 µM in assay [4]; 2.22 µM in [5]; 3.22 µM in assay [6]. Besides, the TGI in assay [7] was 4.53 µM; in assay [8], 2.78 µM; in [9], 24.6 µM; in [10], 3.81 µM.

`CCC(=S)N(C)O`: the TGI in [1] is over 100 µM; in [2] it was over 100 µM; in assay [3], 24.1 µM; in assay [4] it was over 37 µM; in assay [5], 51.8 µM; in assay [6] it was over 100 µM. Further, the TGI is 8.28 µM in assay [7], over 100 µM in assay [8], over 100 µM in assay [9] and over 95.3 µM in assay [10].

Consider `COc1ccc2[nH]cc(/C=C3\C(=O)Nc4ccccc43)c2c1`, for which the GI50 in assay [1] is 5.85 µM; in assay [2], 4.12 µM; in [3], 3.6 µM; in [4], 2.82 µM; in [5] it was 4.62 µM; in assay [6], 2.99 µM. For the same molecule, the GI50 in assay [7] was 4.59 µM; in assay [8] it was 5.89 µM; in assay [9] it was 4.75 µM; in assay [10] it was 7.98 µM. For the same molecule, the TGI in assay [1] is 37.5 µM; in assay [2] it was 26.4 µM; in assay [3] it was 14.3 µM; in [4], 16.8 µM; in assay [5] it was 15.9 µM; in assay [6] it was 14.2 µM. Moreover, the TGI amounted to 19.6 µM in [7], 25.8 µM in [8], 21.5 µM in [9] and 31.3 µM in assay [10].

As to `CSC(=S)NN=C1CCCCC1`, the TGI in [1] was 56 µM; in [2], 65.2 µM; in assay [3] it was over 100 µM; in assay [4] it was 43.3 µM; in [5], 53.1 µM; in assay [6] it was 38.7 µM. Further, the TGI in assay [7] is 88.7 µM; in [8], over 100 µM; in assay [9], over 100 µM; in assay [10], 89.7 µM.

Regarding `CCOC(=O)C(=Cc1ccc(Br)cc1)C(=O)OCC`, the GI50 in [1] is 2.09 µM; in assay [2] it was 1.76 µM; in [3], 2.25 µM; in assay [4], 1.81 µM; in assay [5], 0.793 µM; in assay [6], 1.8 µM. The GI50 was 1.75 µM in assay [7], 1.86 µM in assay [8], 5.41 µM in assay [9] and 3.13 µM in [10]. The TGI came to 4.45 µM in assay [1]; 5.59 µM in assay [2]; 5.86 µM in assay [3]; 3.94 µM in assay [4]; 2.24 µM in assay [5]; 3.68 µM in assay [6]. For the same molecule, the TGI in assay [7] was determined as 4.22 µM; in assay [8], 5.96 µM; in assay [9] it was 17 µM; in [10] it was 8.57 µM.

Consider `C=CC1=C(C)C2=NC1=CC1=NC(=C(CC)/C1=C/O)C=C1C=C3C(=O)C(C(=O)OC)C(=C4NC(=C2)C(C)C4CCC(=O)OC/C=C(\C)CCCC(C)CCCC(C)CCCC(C)C)C3=N1` (stereo not given) (tested in a mixture with another compound), for which the TGI in [1], in assay [2], in assay [3], in [4], in [5] and in assay [6] was over 100 µM in each case. The TGI was 73 µM in assay [7], over 100 µM in [8], over 100 µM in assay [9] and over 100 µM in assay [10].

As for `O=C(N/N=C/c1cc2ccccc2c2ccccc12)c1cc(O)c(O)c(O)c1`, the GI50 in [1] is 3.25 µM; in assay [2], 3.72 µM; in [3], 9.95 µM; in assay [4], 4.14 µM; in assay [5], 2.38 µM; in assay [6] it was 4.34 µM. The GI50 is 2.06 µM in assay [7], 3.28 µM in assay [8], 4.31 µM in [9] and 4.48 µM in [10]. Further, the TGI in assay [1] was found to be 12.6 µM; in [2], 19.1 µM; in assay [3], 31 µM; in assay [4] it was 20.5 µM; in assay [5], 5.98 µM; in assay [6], 18.2 µM. Also, the TGI came out at 5.64 µM in assay [7], 15.6 µM in assay [8], 15.6 µM in assay [9] and 30.7 µM in [10].

For `CC(=O)N1c2ccccc2C23CCN4CC5=CCOC(O)C(C5CC42)C13` (stereo not given), the TGI in assay [1], in [2], in assay [3], in assay [4], in assay [5] and in assay [6] was over 100 µM throughout. The TGI in assay [7], in assay [8], in assay [9] and in [10] was over 100 µM throughout.

On to `O=C(Oc1ccc([N+](=O)[O-])cc1)N1CCC(C(O)(c2ccc3c(c2)OCO3)c2ccc3c(c2)OCO3)CC1`, for which the GI50 in assay [1], in assay [2], in assay [3], in [4], in [5] and in assay [6] was over 100 µM throughout. Also, the GI50 in assay [7], in assay [8], in assay [9] and in [10] was over 100 µM in each case. In addition, the TGI in assay [1], in [2], in assay [3], in assay [4], in [5] and in [6] was over 100 µM each time. The TGI in assay [7], in assay [8], in assay [9] and in assay [10] was over 100 µM each time.

For `NC(C(=O)O)C(N)C(=O)O` (stereo not given), the TGI in [1], in assay [2], in assay [3], in assay [4], in assay [5] and in [6] was over 100 µM throughout. In addition, the TGI in assay [7], in assay [8], in assay [9] and in [10] was over 100 µM each time.

For `N#Cc1cccc(Nc2nccc(-c3cnn4ncccc34)n2)c1`, the GI50 was 0.00487 µM in assay [1]; 0.00729 µM in assay [2]; 0.00572 µM in assay [3]; 0.00937 µM in assay [4]; 0.00279 µM in [5]; 0.00525 µM in assay [6]. Besides, the GI50 in [7] was 0.00752 µM; in [8] it was 0.00745 µM; in assay [9], 0.014 µM; in [10], 0.00603 µM. The TGI was over 25 µM in assay [1]; 1.17 µM in assay [2]; 0.034 µM in assay [3]; over 11.6 µM in [4]; over 8.75 µM in assay [5]; 0.0125 µM in assay [6]. Also, the TGI in [7] was 0.0394 µM; in assay [8] it was over 25 µM; in [9], over 25 µM; in assay [10] it was 0.0172 µM.

`O=c1cccc(C#CCCCCOC2CCCO2)o1` (stereo not given): the GI50 in assay [1] was 27.5 µM; in assay [2], 11.4 µM; in [3], 16.5 µM; in assay [4], 37.2 µM; in [5], 32.6 µM; in assay [6] it was 9.49 µM. The GI50 was 3.77 µM in [7], 6.73 µM in assay [8], over 30.4 µM in assay [9] and 13.4 µM in assay [10]. Also, the TGI in assay [1] was 60.5 µM; in assay [2], 33.6 µM; in assay [3] it was over 60.5 µM; in assay [4], over 88.8 µM; in assay [5], over 74.5 µM; in [6], over 27.9 µM. Further, the TGI in [7] was over 64.9 µM; in assay [8], over 54.6 µM; in assay [9], over 54.1 µM; in assay [10] it was 35.6 µM.

Take `O=C1Nc2ccccc2SC1C1SC(=S)N(Cc2ccccc2)C1=O` (stereo not given): the GI50 in assay [1] is 7.41 µM; in [2] it was 4.53 µM; in assay [3] it was 3.98 µM; in assay [4] it was 3.37 µM; in assay [5] it was 2.08 µM; in assay [6], 4.6 µM. For the same molecule, the GI50 was 5.29 µM in assay [7], 5.74 µM in assay [8], 22.9 µM in [9] and 5.71 µM in assay [10]. The TGI in assay [1] was found to be 20.3 µM; in assay [2], 17.6 µM; in [3], 39.8 µM; in assay [4], 16.5 µM; in assay [5] it was 7.78 µM; in [6], 19.8 µM. The TGI was 19.1 µM in [7], over 43 µM in assay [8], over 100 µM in assay [9] and 22 µM in assay [10].
